The values that follow are results of earlier work, collected in PMC3241508 (Bioconjugate chemistry, 2011).

Turning to dextran sulfate, the “oral absorption into the blood stream” value (later study) is reported as “good oral absorption”. In addition, the oral absorption entry (oral) is “poorly absorbed orally”.
